Results reported in patent US8278482B2, “Antimicrobial N-chlorinated compositions” (priority 2008, dated 2012).
Read-outs that look alike come from different tables or passages of the source.

How the values were obtained:
Type in all cases: cell-based
[1] = test system: Escherichia coli (ATCC 25922); assay: Antimicrobial activity (MBC), E. coli ATCC 25922
Description: (§1) To determine antimicrobial activity, Escherichia coli (ATCC 25922), Staphylococcus aureus (ATCC 29213), Pseudomonas aeruginosa (ATCC 27853), and Candida albicans (ATCC 10231) were used in primary screening. In addition, Escherichia coli (MCC 80392), Staphylococcus aureus (MCC 91731), Pseudomonas aeruginosa (MCC 4438), and Candida albicans (MCC 50319), provided by Alcon Laboratories, Fort Worth, Tex., were used. The microbial cultures were diluted in sterile saline pH 4 to prepare inocula. Test compounds were titrated by stepwise two-fold dilutions in sterile saline pH 4. A total of 1.0×10^5 to 1.0×10^6 Colony Forming Units (CFU)/mL microbe was added to each tube, mixed by gentle vortexing, and then incubated at room temperature for 1 h. Microbial plating on Petri dishes (Tryptic Soy agar or Saboraud's Dextrose agar) was performed immediately after the designated exposure after neutralization of the test article dilutions in Dey-Engley Broth. Plates were incubated at 37° C., and the numbers of microbes were counted by direct colony count to quantitate the surviving microbes as CFU/mL. Positive growth controls were made with sterile 0.9% saline. Compounds were dissolved in unbuffered isotonic saline (SAL) or phosphate buffered saline (PBS) at pH 4 or pH 7 (using HCl and/or NaOH as needed). All compounds were tested three times. The results are tabulated to show the comparison of antimicrobial effectiveness range of the compounds.
(§2) Data shown are the Minimum Bactericidal Concentration (MBC) or Minimum Fungicidal Concentration (MFC) (≧99.9% kill) in μg/mL.

[2] = test system: Candida albicans (MCC 50319); assay: Antimicrobial activity (MFC), C. albicans MCC 50319; details: 1 h exposure at room temperature
Description: as §1, §2

[3] = test system: Staphylococcus aureus (ATCC 29213); assay: Antimicrobial activity (MBC), S. aureus ATCC 29213
Description: as §1, §2

[4] = test system: mouse fibroblast cells (ATCC CCL-1, L929); assay: Cytotoxicity, WST-8 colorimetric assay; details: 60 min exposure
Description: Cytotoxicity was assessed by a colorimetric assay system using the Dojindo™ cell counting kit containing 2-(2-methoxy-4-nitrophenyl)-3-(4-nitrophenyl)-5-(2,4-disulfophenyl)-2H-tetrazolium, monosodium salt (WST-8). In this assay, the WST-8 reagent was bioreduced by cellular dehydrogenases to a formazan product that is highly soluble in tissue culture medium.
In a standard assay, mouse fibroblast cells (ATCC CCL-1, L929), were cultured in Minimum Essential Medium, α-medium supplemented with 10% heat inactivated fetal bovine serum, L-glutamine, penicillin and streptomycin. Cells were trypsinized and counted under the microscope and seeded at 1.5×10^4 total cells per 100 μL per well of a flat-bottom 96-well plate in order to achieve ˜80% confluence after overnight incubation at 37° C. On the day of the assay, the tissue culture medium was removed and replaced with 30 μL of fresh medium.
Test articles were prepared as 2-fold serial dilutions and 170 μL of each dilution is added into each of 4-wells (total volume per well=200 μL). The test plate was then returned to the 37° C. incubator for 60 min. Immediately after the exposed time, test article from each well was replaced with 200 μL of fresh media. Plates were incubated at 37° C. for 18-20 hours. The following day growth medium was replaced with 100 μL/well of fresh medium containing 10 μL WST-8 reagent. Cells were incubated under growth conditions (5% CO2 at 37° C. humidified incubator), protected from light, until color development was achieved (usually 1-4 hours). Absorbance was read at 450 nm with reference wavelength at 750 nm using Molecular Device SpectraMax M5 plate reader. Untreated or vehicle only treated cells receiving WST-8 reagent served as positive cell proliferation controls.
The absorbance A450/750 from each well of untreated cells and from each well within the dilution series was measured. […] Next, a non-linear regression (curve fit) analysis was performed on all the absorbance data measured from the dilution series, including the absorbance data obtained from wells of the untreated control cells. For each dilution within the dilution series, an average A450/750 was calculated from the four replicate wells.

[5] = test system: Staphylococcus aureus (MCC 91731); assay: Antimicrobial activity (MBC), S. aureus MCC 91731; details: 1 h exposure at room temperature
Description: as §1, §2

[6] = test system: Escherichia coli (MCC 80392); assay: Antimicrobial activity (MBC), E. coli MCC 80392; details: 1 h exposure at room temperature
Description: as §1, §2

[7] = test system: Candida albicans (ATCC 10231); assay: Antimicrobial activity (MFC), C. albicans ATCC 10231
Description: as §1, §2

[8] = test system: Pseudomonas aeruginosa (MCC 4438); assay: Antimicrobial activity (MBC), P. aeruginosa MCC 4438; details: 1 h exposure at room temperature
Description: as §1, §2

[9] = ATCC25922, E. coli ATCC 25922, pH 4 (Sal), 1 h exposure at room temperature, read-out: Minimum Bactericidal Concentration (MBC) (≧99.9% kill)
[10] = ATCC29213, S. aureus ATCC 29213, pH 4 (Sal), 1 h exposure at room temperature, read-out: Minimum Bactericidal Concentration (MBC) (≧99.9% kill)
[11] = ATCC10231, C. albicans ATCC 10231, pH 4 (Sal), 1 h exposure at room temperature, read-out: Minimum Fungicidal Concentration (MFC) (≧99.9% kill)

Row | Compound | MBC ([1]; ATCC25922, 1 h, pH 4, read-out: Minimum Bactericidal Concentration (MBC) (≧99.9% kill)) | Minimum Fungicidal Concentration (MFC) (≧99.9% kill) ([2]; pH 4 (Sal)) | Minimum Fungicidal Concentration (MFC) (≧99.9% kill) ([2]; pH 7 (PBS)) | MBC ([3]; ATCC29213, 1 h, pH 4, read-out: Minimum Bactericidal Concentration (MBC) (≧99.9% kill)) | CT50 (concentration that results in survival of 50% of the cells) ([4]; pH 4 (Sal)) | CT50 (concentration that results in survival of 50% of the cells) ([4]; pH 7 (PBS)) | Minimum Bactericidal Concentration (MBC) (≧99.9% kill) ([5]; pH 4 (Sal)) | Minimum Bactericidal Concentration (MBC) (≧99.9% kill) ([5]; pH 7 (PBS)) | Minimum Bactericidal Concentration (MBC) (≧99.9% kill) ([6]; pH 4 (Sal)) | Minimum Bactericidal Concentration (MBC) (≧99.9% kill) ([6]; pH 7 (PBS)) | MFC ([7]; ATCC10231, 1 h, pH 4, read-out: Minimum Fungicidal Concentration (MFC) (≧99.9% kill)) | MBC [1, 9] | MBC ([1]; ATCC25922, E. coli ATCC 25922, pH 7 (PBS), 1 h exposure at room temperature, read-out: Minimum Bactericidal Concentration (MBC) (≧99.9% kill)) | MBC [3, 10] | MBC ([3]; ATCC29213, S. aureus ATCC 29213, pH 7 (PBS), 1 h exposure at room temperature, read-out: Minimum Bactericidal Concentration (MBC) (≧99.9% kill)) | Minimum Bactericidal Concentration (MBC) (≧99.9% kill) ([8]; pH 7 (PBS)) | MFC [7, 11] | MFC ([7]; ATCC10231, C. albicans ATCC 10231, pH 7 (PBS), 1 h exposure at room temperature, read-out: Minimum Fungicidal Concentration (MFC) (≧99.9% kill)) | Minimum Bactericidal Concentration (MBC) (≧99.9% kill) ([8]; pH 4 (Sal))
1 | CC(C)(C[N+](C)(C)C)N(Cl)Cl [Compound 21-30, 2-(Dichloroamino)-N,N,N-2-tetramethylpropan-1-ammonium chloride] | 16 µg/mL | 256 µg/mL | >2048 µg/mL | 8 µg/mL | 0.5 mM | 0.5 mM | 8 µg/mL | 512 µg/mL | 16 µg/mL | 512 µg/mL | 128 µg/mL |  |  |  |  |  |  |  | 
2 | CC(C)(CC[N+](C)(C)C)N(Cl)Cl.[Cl-] [Compound 21-32, 3-(Dichloroamino)-N,N,N-3-tetramethylbutan-1-ammonium chloride] |  | 32 µg/mL | >1024 µg/mL |  | 1.7 mM | 1.8 mM | 1 µg/mL | 256 µg/mL | 8 µg/mL | 256 µg/mL |  | 2 µg/mL | 128 µg/mL | 2 µg/mL | 512 µg/mL | 512 µg/mL | 64 µg/mL | > 4100 µg/mL | 
3 | CC(C)(CC[N+]1(C)CCCCC1)N(Cl)Cl.[Cl-] [Compound 21-80, 1-(3-(Dichloroamino)-3-methylbutyl)-1-methylpiperidinium chloride] |  | 64 µg/mL | >512 µg/mL |  | 0.9 mM |  | 4 µg/mL | >256 µg/mL | 4 µg/mL | 256 µg/mL |  | 2 µg/mL |  | 4 µg/mL |  | >256 µg/mL | 32 µg/mL |  | 4 µg/mL
4 | CC[N+](C)(CC)CCC(C)(C)N(Cl)Cl.[Cl-] [Compound 21-114, 3-(Dichloroamino)-N,N-diethyl-N-3-dimethylbutan-1-ammonium chloride] |  |  |  |  | 1.3 mM |  | 4 µg/mL | 512 µg/mL | 2 µg/mL | 512 µg/mL |  | 8 µg/mL |  | 2 µg/mL |  | 1024 µg/mL | 16 µg/mL |  | 4 µg/mL
